Results from patent publication US8952024B2, “Herbicidal pyrimidone derivatives” (E I du Pont de Nemours and Company, priority 2009, dated 2015).

Tests used:
Assay in all cases: Test B pre-/postemergence plant response
Assay type in all cases: in vivo
[1] = tested on: Italian ryegrass (Lolium multiflorum)
Outline: (§1)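 Visually scored on a 0 to 100 scale after 13 to 15 days in greenhouse versus controls. Treatments were preemergence on seeded loam/sand soil and postemergence on 1- to 4-leaf plants.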

[2] = tested on: bermudagrass (Cynodon dactylon)
Outline: as §1

corn (Zea mays) = tested on: corn (Zea mays)
Outline: as §1

[3] = tested on: downy bromegrass (Bromus tectorum)
Outline: as §1

[4] = tested on: giant foxtail (Setaria faberii)
Outline: as §1

[5] = tested on: goosegrass (Eleusine indica)
Outline: as §1

[6] = tested on: green foxtail (Setaria viridis)
Outline: as §1

[7] = tested on: johnsongrass (Sorghum halepense)
Outline: as §1

[8] = tested on: large crabgrass (Digitaria sanguinalis)
Outline: as §1

[9] = tested on: morningglory (Ipomoea coccinea)
Outline: as §1

[10] = tested on: ragweed (common ragweed, Ambrosia elatior)
Outline: as §1

[11] = tested on: woolly cupgrass (Eriochloa villosa)
Outline: as §1

[12] = tested on: yellow nutsedge (Cyperus esculentus)
Outline: as §1

[13] = 250 g ai/ha, Preemergence, 0 to 100 scale
[14] = Postemergence, 31 g ai/ha, scale 0 to 100 (0 no effect, 100 complete control)
[15] = Postemergence, 62 g ai/ha, scale 0 (no effect) to 100 (complete control), 13 to 15 days
[16] = Postemergence, 125 g ai/ha, visual rating after 13 to 15 days, scale 0 (no effect) to 100 (complete control)
[17] = Postemergence, 250 g ai/ha, scale 0 to 100
[18] = Preemergence, 31 g ai/ha, scale 0 to 100 (0 no effect, 100 complete control)
[19] = Preemergence, 62 g ai/ha, scale 0 to 100 (0 no effect, 100 complete control)
[20] = Preemergence, 125 g ai/ha, 0 to 100 scale
[21] = Postemergence, 31 g ai/ha, 0 to 100 scale (0 no effect, 100 complete control)
[22] = Postemergence, 125 g ai/ha, scale 0 to 100 (0 no effect, 100 complete control)
[23] = Postemergence, 250 g ai/ha, scale 0 to 100 (0 no effect, 100 complete control), 13 to 15 days
[24] = 62 g ai/ha, postemergence, 0 is no effect, 100 is complete control, 13 to 15 days

Molecule: 3-cyclohexyl-5-[(2-hydroxy-6-oxo-1-cyclohexen-1-yl)carbonyl]-2-phenyl-4(3H)-pyrimidinone [Compound 128]
- Plant response rating, Ryegrass, Italian [1, 13]: 0
- Plant response rating, Ryegrass, Italian [1, 14]: 10
- Plant response rating, Ryegrass, Italian [1, 15]: 10
- Plant response rating, Ryegrass, Italian [1, 16]: 40
- Ryegrass, Italian plant response rating [1, 17]: 40
- Plant response rating, Ryegrass, Italian [1, 18]: 0
- Plant response rating, Ryegrass, Italian [1, 19]: 0
- Ryegrass, Italian plant response rating [1, 20]: 0
- Plant response rating, Bermudagrass [2, 13]: 100
- Plant response rating, Bermudagrass [2, 14]: 80
- Plant response rating, Bermudagrass [2, 15]: 100
- Plant response rating, Bermudagrass ([2]; Postemergence, 125 g ai/ha, scale 0 to 100 (0 no effect, 100 complete control), 13 to 15 days): 100
- Bermudagrass plant response rating [2, 17]: 100
- Plant response rating, Bermudagrass [2, 18]: 98
- Plant response rating, Bermudagrass [2, 19]: 100
- Bermudagrass plant response rating [2, 20]: 100
- Plant response rating, Corn (corn (Zea mays); [13]): 35
- Plant response rating, Corn (corn (Zea mays); [14]): 70
- Plant response rating, Corn (corn (Zea mays); [15]): 75
- Plant response rating, Corn (corn (Zea mays); [16]): 80
- Corn plant response rating (corn (Zea mays); [17]): 85
- Plant response rating, Corn (corn (Zea mays); [18]): 0
- Plant response rating, Corn (corn (Zea mays); [19]): 0
- Corn plant response rating (corn (Zea mays); [20]): 0
- Plant response rating, Bromegrass, Downy [3, 13]: 5
- Plant response rating, Bromegrass, Downy [3, 14]: 20
- Plant response rating, Bromegrass, Downy [3, 15]: 35
- Plant response rating, Bromegrass, Downy [3, 16]: 45
- Bromegrass, Downy plant response rating [3, 17]: 45
- Plant response rating, Bromegrass, Downy [3, 18]: 0
- Plant response rating, Bromegrass, Downy [3, 19]: 0
- Bromegrass, Downy plant response rating [3, 20]: 0
- Plant response rating, Foxtail, Giant [4, 13]: 100
- Plant response rating, Foxtail, Giant [4, 14]: 75
- Plant response rating, Foxtail, Giant [4, 15]: 85
- Plant response rating, Foxtail, Giant [4, 16]: 98
- Foxtail, Giant plant response rating [4, 17]: 100
- Plant response rating, Foxtail, Giant [4, 18]: 0
- Plant response rating, Foxtail, Giant [4, 19]: 35
- Foxtail, Giant plant response rating [4, 20]: 75
- Plant response rating, Goosegrass [5, 13]: 100
- Plant response rating, Goosegrass [5, 14]: 65
- Plant response rating, Goosegrass [5, 15]: 85
- Plant response rating, Goosegrass [5, 16]: 95
- Goosegrass plant response rating [5, 17]: 98
- Plant response rating, Goosegrass [5, 18]: 70
- Goosegrass plant response rating [5, 20]: 100
- Plant response rating, Foxtail, Green [6, 13]: 65
- Plant response rating, Foxtail, Green [6, 14]: 60
- Plant response rating, Foxtail, Green [6, 15]: 60
- Plant response rating, Foxtail, Green [6, 16]: 85
- Foxtail, Green plant response rating [6, 17]: 98
- Plant response rating, Foxtail, Green [6, 18]: 0
- Plant response rating, Foxtail, Green [6, 19]: 25
- Foxtail, Green plant response rating [6, 20]: 65
- Plant response rating, Johnsongrass [7, 13]: 98
- Plant response rating, Johnsongrass [7, 14]: 65
- Plant response rating, Johnsongrass [7, 15]: 70
- Plant response rating, Johnsongrass [7, 16]: 90
- Johnsongrass plant response rating [7, 17]: 98
- Plant response rating, Johnsongrass [7, 18]: 0
- Plant response rating, Johnsongrass [7, 19]: 55
- Johnsongrass plant response rating [7, 20]: 85
- Plant response rating, Crabgrass, Large [8, 13]: 100
- Plant response rating, Crabgrass, Large [8, 14]: 80
- Plant response rating, Crabgrass, Large [8, 15]: 85
- Plant response rating, Crabgrass, Large [8, 16]: 100
- Crabgrass, Large plant response rating [8, 17]: 100
- Plant response rating, Crabgrass, Large [8, 18]: 60
- Plant response rating, Crabgrass, Large [8, 19]: 100
- Crabgrass, Large plant response rating [8, 20]: 100
- Plant response rating, Morningglory [9, 13]: 100
- Plant response rating, Morningglory [9, 14]: 15
- Plant response rating, Morningglory [9, 15]: 15
- Plant response rating, Morningglory [9, 16]: 70
- Morningglory plant response rating [9, 17]: 80
- Plant response rating, Morningglory [9, 18]: 0
- Plant response rating, Morningglory [9, 19]: 0
- Morningglory plant response rating [9, 20]: 35
- Plant response rating, Ragweed [10, 13]: 100
- Plant response rating, Ragweed [10, 14]: 100
- Plant response rating, Ragweed [10, 15]: 100
- Plant response rating, Ragweed [10, 16]: 100
- Ragweed plant response rating [10, 17]: 100
- Plant response rating, Ragweed [10, 18]: 65
- Plant response rating, Ragweed [10, 19]: 100
- Ragweed plant response rating [10, 20]: 100
- Plant response rating, Cupgrass, Woolly [11, 13]: 75
- Plant response rating, Cupgrass, Woolly [11, 14]: 55
- Plant response rating, Cupgrass, Woolly [11, 15]: 75
- Plant response rating, Cupgrass, Woolly [11, 16]: 90
- Cupgrass, Woolly plant response rating [11, 17]: 95
- Plant response rating, Cupgrass, Woolly [11, 18]: 0
- Plant response rating, Cupgrass, Woolly [11, 19]: 0
- Cupgrass, Woolly plant response rating [11, 20]: 15
- Plant response rating, Nutsedge, Yellow [12, 13]: 90
- Plant response rating, Nutsedge, Yellow [12, 14]: 25
- Plant response rating, Nutsedge, Yellow [12, 15]: 35
- Plant response rating, Nutsedge, Yellow [12, 16]: 50
- Nutsedge, Yellow plant response rating [12, 17]: 60
- Plant response rating, Nutsedge, Yellow [12, 18]: 0
- Plant response rating, Nutsedge, Yellow [12, 19]: 55
- Nutsedge, Yellow plant response rating [12, 20]: 85

Molecule: O=C1CCCC(O)=C1C(=O)c1cnc(-c2cccs2)n(C2CCCCC2)c1=O [Compound 189]
- Plant response rating, Ryegrass, Italian [1, 21]: 0
- Plant response rating, Ryegrass, Italian [1, 22]: 5
- Plant response rating, Ryegrass, Italian [1, 23]: 5
- Bermudagrass plant response rating (0 to 100 scale) [2, 24]: 15
- Plant response rating, Bermudagrass [2, 21]: 10
- Plant response rating, Bermudagrass [2, 22]: 65
- Plant response rating, Bermudagrass [2, 23]: 70
- Plant response rating, Corn (corn (Zea mays); [21]): 20
- Plant response rating, Corn (corn (Zea mays); [22]): 35
- Plant response rating, Corn (corn (Zea mays); [23]): 45
- Bromegrass, Downy plant response rating (0 to 100 scale) [3, 24]: 5
- Plant response rating, Bromegrass, Downy [3, 21]: 0
- Plant response rating, Bromegrass, Downy [3, 22]: 5
- Plant response rating, Bromegrass, Downy [3, 23]: 10
- Plant response rating, Foxtail, Giant [4, 21]: 75
- Plant response rating, Foxtail, Giant [4, 22]: 90
- Plant response rating, Foxtail, Giant [4, 23]: 98
- Plant response rating, Goosegrass [5, 21]: 60
- Plant response rating, Goosegrass [5, 22]: 90
- Plant response rating, Goosegrass [5, 23]: 90
- Plant response rating, Foxtail, Green [6, 21]: 65
- Plant response rating, Foxtail, Green [6, 22]: 90
- Plant response rating, Foxtail, Green [6, 23]: 95
- Plant response rating, Johnsongrass [7, 21]: 50
- Plant response rating, Johnsongrass [7, 22]: 65
- Plant response rating, Johnsongrass [7, 23]: 70
- Plant response rating, Crabgrass, Large [8, 21]: 75
- Plant response rating, Crabgrass, Large [8, 22]: 95
- Plant response rating, Crabgrass, Large [8, 23]: 100
- Plant response rating, Morningglory [9, 21]: 100
- Plant response rating, Morningglory [9, 22]: 100
- Plant response rating, Morningglory [9, 23]: 100
- Plant response rating, Ragweed [10, 21]: 10
- Plant response rating, Ragweed [10, 22]: 75
- Plant response rating, Ragweed [10, 23]: 80
- Plant response rating, Cupgrass, Woolly [11, 21]: 70
- Plant response rating, Cupgrass, Woolly [11, 22]: 75
- Plant response rating, Cupgrass, Woolly [11, 23]: 80
- Plant response rating, Nutsedge, Yellow [12, 21]: 20
- Plant response rating, Nutsedge, Yellow [12, 22]: 55
- Plant response rating, Nutsedge, Yellow [12, 23]: 65
